Reference: patent publication US20120142771A1, “BIPHENYLACETAMIDE DERIVATIVE” (Dainippon Sumitomo Pharma Co., Ltd., priority 2008, published 2012)

Key:
Assay type in all cases: in vivo, mice
[1] = system: 6 Hz psychomotor seizure model; assay: 6 Hz psychomotor seizure model; conditions: mice, oral; for ED50: Mus musculus, 6 Hz psychomotor seizure model, read-out: ED50; for 6 Hz (Positive number/tested number): dose 100 mg/kg, 30 minutes or 1 hour after administration
Procedure: Test 4: Test of 6 Hz Psychomotor Seizure Model
Similar to Tests 1 and 2, Test 4 evaluates the anticonvulsant action of medicaments. However, unlike Tests 1 and 2, the animal model used herein represents clinical phenotypes of seizures resistant to existing antiepileptic drugs. […] After 30 minutes or an hour of administration, their corneas were electrically stimulated (6 Hz, 32 mA, 3 seconds) to induce symptoms of myoclonus in their forelimbs, Straub tail, and immobility. […] To the control mice, 0.5% tragacanth solution, 0.5% methylcellulose solution, or olive oil was administered.

[2] = system: subcutaneously pentetrazol-injected model (scPTZ); assay: Subcutaneously pentetrazol-injected model (scPTZ) test; conditions: pentetrazol 85 mg/kg s.c. after 1 hour; for responders at 50 mg/kg / responders at 100 mg/kg: Mus musculus, po, 1 h, read-out: scPTZ (positive number/tested number) (converted); for responders at 50 mg/kg / responders at 100 mg/kg / scPTZ (positive number/tested number): Slc: ddY male mice, 3 per group, observed 30 minutes for clonic convulsion; for anticonvulsant action in subcutaneously pentetrazol-injected model (scPTZ) test: mice, oral 50 or 100 mg/kg
Outline: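 Pentetrazol (85 mg/kg, s.c.) was injected one hour after oral test compound at 50 or 100 mg/kg in groups of three male Slc:ddY mice weighing 20-30 g; vehicle controls got 0.5% tragacanth or 0.5% methylcellulose.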

[3] = system: maximum electroshock seizure (MES) model; assay: Maximum electroshock seizure (MES) model test; conditions: for responders at 50 mg/kg / responders at 100 mg/kg: Mus musculus, po, 1 h, read-out: MES (positive number/tested number) (converted); for responders at 50 mg/kg / responders at 100 mg/kg / MES (positive number/tested number): Slc: ddY male mice, 3 per group, electrical stimulation 1 hour after administration, inhibition of hind limb extension; for anticonvulsant action in maximum electroshock seizure (MES) model test: mice, oral 50 or 100 mg/kg, 1 hour after administration
Outline: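 Tonic hind-limb extension was elicited by corneal electroshock (60 Hz, 25 mA, 0.2 s) 1 h after oral dosing. Test compounds were given at 50 or 100 mg/kg to groups of 3 male Slc: ddY mice (20-30 g), vehicle controls receiving 0.5% tragacanth or 0.5% methylcellulose solution.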

Compound | ED50 [1] [mg/kg] | 6 Hz (Positive number/tested number) [1] | responders at 50 mg/kg ([2]; 50 mg/kg oral) [%] | responders at 100 mg/kg ([2]; 100 mg/kg oral) [%] | anticonvulsant action in subcutaneously pentetrazol-injected model (scPTZ) test [2] | responders at 50 mg/kg ([3]; 50 mg/kg oral) [%] | responders at 100 mg/kg ([3]; 100 mg/kg oral) [%] | anticonvulsant action in maximum electroshock seizure (MES) model test [3] | scPTZ (positive number/tested number) ([2]; 50 mg/kg oral) | scPTZ (positive number/tested number) ([2]; 100 mg/kg oral) | MES (positive number/tested number) ([3]; 50 mg/kg oral) | MES (positive number/tested number) ([3]; 100 mg/kg oral)
NC(=O)C(O)c1ccccc1-c1cccc(F)c1 (single isomer, unassigned) [Example 211, 2-(3′-Fluorobiphenyl-2-yl)-2-hydroxyacetamide] | 100 | 5/10/100 | 66.7 | 66.7 | anticonvulsant action was observed | 100 | 100 | anticonvulsant action was observed | – | – | – | –
NC(=O)C(O)c1ccccc1-c1cccc(F)c1 (single isomer, unassigned) [Example 212, 2-(3′-Fluorobiphenyl-2-yl)-2-hydroxyacetamide] | – | 1/5/100 | – | – | anticonvulsant action was observed | – | – | anticonvulsant action was observed | 2/3 | 2/3 | 3/3 | 3/3
NC(=O)[C@H](O)c1ccccc1-c1cc(Cl)cc(Cl)c1 (single isomer, unassigned) [Example 215, 2-(3′,5′-Dichlorobiphenyl-2-yl)-2R-hydroxyacetamide] | 64.8 | 7/10/100 | 0 | 66.7 | – | 66.7 | 66.7 | – | – | – | – | –
NC(=O)Cc1ccccc1-c1cccc(Cl)c1 [Example 13, 2-(3′-chlorobiphenyl-2-yl)acetamide] | – | 2/10/100 | 100 | 66.7 | anticonvulsant action was observed | 66.7 | 100 | anticonvulsant action was observed | – | – | – | –
NC(=O)Cc1ccc(F)cc1-c1ccccc1 [Example 39, 2-(5-fluorobiphenyl-2-yl)acetamide] | – | 1/5/100 | 33.3 | 66.7 | – | 100 | 100 | – | – | – | – | –
NC(=O)Cc1ccc(F)cc1-c1ccccc1F [Example 41, 2-(2′,5-difluorobiphenyl-2-yl)acetamide] | – | 4/5/100 | 66.7 | 66.7 | anticonvulsant action was observed | 100 | 100 | anticonvulsant action was observed | – | – | – | –
NC(=O)Cc1ccccc1-c1ccccc1 [Example 50, 2-(biphenyl-2-yl)acetamide] | – | 3/5/100 | – | 33.3 | – | 66.7 | 100 | – | – | – | – | –
NC(=O)Cc1ccccc1-c1cccc(Br)c1 [Example 52, 2-(3′-bromobiphenyl-2-yl)acetamide] | – | 1/5/100 | 33.3 | 66.7 | – | 66.7 | 100 | – | – | – | – | –
NC(=O)C(O)c1ccccc1-c1ccccc1 (stereo not drawn) [Example 59, 2-(Biphenyl-2-yl)-2-hydroxyacetamide] | 91.5 | 7/10/100 | 0 | 66.7 | – | 100 | 100 | – | – | – | – | –
NC(=O)C(O)c1ccccc1-c1ccccc1F (stereo not drawn) [Example 60, 2-(2′-Fluorobiphenyl-2-yl)-2-hydroxyacetamide] | – | 1/5/100 | 33.3 | 66.7 | – | 100 | 100 | – | – | – | – | –
